Patent US10975033B2, “Methods for treating inflammation and hypertension with γ-ketoaldehyde skavengers” (Vanderbilt University, priority 2011, dated 2021)

Key:
[1] = test system: carrageenin-induced paw edema; test: Carrageenin-induced paw edema rat model; assay type: in vivo; conditions: for mean reduction in edema: 3 hrs after injection of carrageenin, FIG. 7
Excerpt: As indicated above, one embodiment of the present invention is the use of salicylamine to treat inflammation. […] The carrageenin-induced paw edema rat model has been probably the most utilized animal model to screen for potency of NSAIDs and other antiinflammatory compounds to inhibit inflammation for decades. For example, see Proc Soc Exp Biol Med 111:544 in 1962 by Winter C A et. al., entitled: “Carrageenin-induced edema of the hind paw of the rat as an assay for antiinflammatory drugs”. Importantly, it has been shown that this model is one of the most robust predictors of clinical potency of NSAIDs^54.
Our initial experiments tested the ability of a single dose of salicylamine (200 mg/kg), administered intraperitoneally, to reduce paw edema at various time points. Carrageenan (100 μl of a 1% solution in saline) was injected into the hind right footpad. Footpad volume was measured in a water displacement plethysmometer before injection of carrageenin and at 2 hr, 3 hr, and 4 hr post-carrageenin. Edema was calculated as footpad volume change (ml) as a percentage of original paw volume for each individual animal.
The efficacy an analog of salicylamine, 5-methyl-salicylamine, to inhibit carrageenin-induced paw edema was accessed at 3 hrs after injection of carrageenin at two doses, 200 and 100 mg/kg ip (FIG. 7).

[2] = test system: COX enzymes; conditions: cited from earlier work
[3] = test system: NF-κB; test: LPS-induced NF-κB expression in NF-κB reporter macrophages (luciferase reporter assay); assay type: cell-based; conditions: varying concentrations, FIG. 9
Excerpt: The effect of γ-KAs and salicylamine on induction of NF-κB was explored using a novel luciferase reporter assay to quantitatively monitor the induction of expression of NF-κB both in vitro in cells and in vivo^55; 56. NF-κB is required for maximal induction of many cytokines which are thought to be important in the generation of the acute inflammatory responses^57. Accordingly, the downstream effects of an agent that suppresses the induction of NF-κB would be a reduction in the level of inflammation. The first question we asked was does exposure of cells to γ-KAs induce the expression of NF-κB using the luciferase reporter assay mentioned above. […] The abbreviation RLU in this figure stands for Relative Light Units that were measured by luciferase assay.
Another embodiment of the present invention is treatment with varying concentrations of salicylamine (SA) would suppress lipopolysaccharide (LPS) induced expression of NF-κB in NF-κB reporter macrophages.

[4] = test system: cells exposed to a lethal concentration of the oxidant t-butylhydroperoxide; test: Protection of cells against a lethal concentration of t-butylhydroperoxide (FIG. 5); assay type: cell-based
Excerpt: One example is shown in FIG. 5, where cells are exposed to a lethal concentration of the oxidant t-butylhydroperoxide. […] Accordingly, we suspected that the γ-KAs generated by the COX pathways would likely be very pro-inflammatory, which might explain the underlying mechanism by which NSAID's exert some their anti-inflammatory effects.

[5] = Reactivity of scavenger with γ-KAs relative to lysine; conditions: more reactive than lysine
Excerpt: Other embodiments of the present invention include the use of analogs of pyridoxamine that are less polar but retain the critical molecular structure of this molecule responsible for intercepting γ-KAs^49. One example is 2-hydroxy-benzylamine (salicylamine, SA) which is 980 times more reactive than lysine with γ-KAs.
It is important to emphasize that the use of salicylamine is one example of the present invention. Other embodiments include compounds that intercept γ-KA scavengers on various biological processes, their analogs and salt forms thereof. Different non-limiting examples of compounds of the present invention are listed below, which intercept γ-KAs with varying degrees of hydrophilicity. Additionally, to solubilize the more hydrophobic compounds, they have been converted them to an acetate salt. These react with γ-KAs in vitro at a rate more than 2 orders of magnitude greater than the potency of the reaction of γ-KAs with the ε-amine of lysine^49. […] Included are analogs, salts, and pharmaceutical compositions comprising compounds that intercept γ-KA scavengers on various biological processes.

[6] = Pharmacokinetics of salicylamine; assay type: in vivo
[7] = test system: hAPO4 mice; test: Cognitive deficits in hAPO4 mouse model of human Alzheimer's disease; assay type: in vivo
Excerpt: The present inventors have shown that levels of γ-KA adducts are increased in disease affected areas of whole brain tissue from patients with Alzheimer's disease. […] The present inventors accessed the ability of the γ-KA scavenger salicylamine to prevent the development of cognitive abnormalities in an animal model of human Alzheimer's disease, hAPO4 mice.

[8] = test system: neutrophil cell counts in lung bronchoalveolar lavage fluid; test: Neutrophil cell counts in lung bronchoalveolar lavage fluid of LPS-injected mice; assay type: in vivo; conditions: ip at 1 hr, 3 hrs, 5 hrs after LPS; determined 8 hrs after LPS; FIG. 11
Protocol: An in vivo experiment was performed to explore whether treatment with salicylamine would down regulate the activity of NF-kB in animals injected with LPS. The animals we used were mice with a luciferase NF-kB reporter gene developed by Dr. Timothy Blackwell mentioned previously. LPS was injected into mice and salicylamine was injected intraperitoneally at 1 hr, 3 hrs, and 5 hrs after the LPS injection. Lung NF-kB luciferase assay and neutrophil cell counts in lung bronchoalveolar lavage fluid (BAL) were then determined 8 hrs after the LPS injection. There was a reduction in both (a) activity of NF-kB (FIG. 10) (b) and neutrophil cell counts (FIG. 11), both of which are indicative of a pronounced anti-inflammatory effect of salicylamine treatment in these animals.

Row | Compound | mean reduction in edema ([1]; 100 mg/kg ip) [%] | mean reduction in edema ([1]; 200 mg/kg ip) [%] | inhibition of COX (cyclooxygenase) enzymes [2] | LPS induced expression of NF-κB [3] | inhibition of carrageenin-induced paw edema ([1]; single dose 200 mg/kg intraperitoneally, 2 hr, 3 hr, 4 hr post-carrageenin, FIG. 6) | persistence of decrease in paw edema after injection of carrageenin ([1]; single intraperitoneal injection, 200 mg/kg) | protection against cell death [4] | reactivity with γ-KAs relative to lysine [5] [times] | plasma concentrations compared with tissue concentrations ([6]; in vivo) | half-life ([6]; plasma, read-out: half life (t1/2) in plasma) [h] | prevention of development of cognitive deficits [7] | neutrophil cell counts in BAL [8]
1 | Cc1ccc(O)c(CN)c1 [5-methyl-salicylamine] | 29 | 60 | – | – | – | – | – | – | – | – | – | –
2 | NCc1ccccc1O [salicylamine, 2-hydroxy-benzylamine] | – | – | None of the compound listed below, including salicylamine, inhibit cyclooxygenase enzymes | concentration dependent stepwise reduction | marked inhibition | at least 4 hrs | almost completely protected against cell death | 980 | lower than tissue concentrations | ~1 | almost completely prevented | reduction
